What all share (conditions): incubation time: 72 h
For assay [1], the system named is HCC1143. Briefly: drug sensitivity score (DSS), CellTox Green (DSS (AUC-based score)); higher = stronger drug effect (viability inhibition or cytotoxicity); extreme values may be limits of the assay. In a few lines:
(§1)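 The drug sensitivity score was computed from the area under the fitted dose-response curve. Breast cancer cell lines in 20 µl suspension went into 384-well plates holding compound at 5 concentrations (10-fold steps over a 10,000-fold, compound-specific range) for 72 h of incubation. CellTox Green fluorescence (485/520 nm) was read before CellTiter-Glo luminescence, the latter after 10 min at room temperature, and each plate was normalised to 0.1 % DMSO and a positive kill control.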

Assay [2] has as its system MFM-223. The assay is described as above. In a few lines: as §1
The subject of assay [3] is CAL-51. The description is as above. A digest of the protocol: as §1
For assay [4], the system named is DU-4475. The description is as above. A digest of the protocol:
as §1

The test system of assay [5] is MCF-10A. Described as above. A digest of the protocol: as §1
The subject of assay [6] is BT-474. The description is as above. A digest of the protocol: as §1
Assay [7] deals with MDA-MB-453. Described as above. In a few lines: as §1
The subject of assay [8] is HCC1599. The description is as above. In a few lines: as §1
Assay [9] concerns CAL-120. Described as above. A digest of the protocol:
as §1

Assay [10] relates to HDQ-P1. The assay is described as above. A digest of the protocol: as §1
Assay [11] concerns HCC1143. Kind of assay: normalised response (% of control), CellTox Green; higher = less cell death (100 = DMSO, 0 = benzethonium chloride kill control). In a few lines:
(§2)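 Two readouts were taken after 72 h: CellTox Green fluorescence (485/520 nm) first, then CellTiter-Glo luminescence after 10 min at room temperature. Breast cancer cell lines had been seeded as 20 µl suspension into 384-well plates holding compound at 5 concentrations in 10-fold steps across a compound-specific 10,000-fold range. Each value is a normalised signal at a single concentration, with plates scaled to 0.1 % DMSO (100) and a positive kill control (0).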

For assay [12], the system named is MFM-223. The description is as above. A digest of the protocol: as §2
In assay [13] the test system is CAL-51. Described as above. In a few lines: as §2
The next assay relates to HCC1937. Described as above. In a few lines: as §2
Another assay relates to MDA-MB-468. The description is as above. In a few lines: as §2
The test system of assay [14] is DU-4475. Described as above. In a few lines:
as §2

Assay [15] deals with MCF-10A. The description is as above. A digest of the protocol: as §2
The test system of a further assay is BT-549. The description is as above. In a few lines: as §2
The subject of assay [16] is BT-474. Described as above. A digest of the protocol:
as §2

Another assay concerns MDA-MB-436. Described as above. A digest of the protocol: as §2
Assay [17] has as its system MDA-MB-453. The assay is described as above. A digest of the protocol: as §2
A further assay has as its system MDA-MB-231. Described as above. In a few lines: as §2
The subject of the next assay is Hs578T. The description is as above. In a few lines: as §2
Assay [18] has as its system HCC1599. Described as above. In a few lines: as §2
The subject of the next assay is CAL-85-1. The description is as above. In a few lines:
as §2

The test system of assay [19] is CAL-120. The assay is described as above. In a few lines: as §2
Assay [20] deals with HDQ-P1. Described as above. In a few lines: as §2
A further assay deals with CAL-148. Described as above. A digest of the protocol: as §2

On to `CCN1CCN(c2ccc(Nc3cc(N(C)C(=O)Nc4c(Cl)c(OC)cc(OC)c4Cl)ncn3)cc2)CC1` [NVP-BGJ398], for which the drug sensitivity score with HCC1143 [1], with MFM-223 [2], with CAL-51 [3], with DU-4475 [4], with MCF-10A [5] and in the assay with BT-474 [6] was 0 in each case. Besides, the drug sensitivity score in the assay on MDA-MB-453 [7] was determined as 0; in the assay with HCC1599 [8], 0; in the assay on CAL-120 [9] it was 0.0505; in the assay on HDQ-P1 [10], 0.
With `COc1cccc2cc(-c3nc([C@H]4CC[C@H](C(=O)O)CC4)n4ncnc(N)c34)[nH]c12` [OSI-027], the drug sensitivity score in the assay with HCC1143 [1], in the assay on MFM-223 [2], in the assay with CAL-51 [3], in the assay on DU-4475 [4], with MCF-10A [5] and in the assay with BT-474 [6] was 0 each time. The drug sensitivity score in the assay on MDA-MB-453 [7], with HCC1599 [8], in the assay on CAL-120 [9] and with HDQ-P1 [10] was 0 each time.
Consider `OC[C@H]1O[C@@H](n2cnc3c2N=CNC[C@H]3O)C[C@@H]1O` [Pentostatin], for which the drug sensitivity score in the assay on HCC1143 [1], in the assay on MFM-223 [2], with CAL-51 [3], with DU-4475 [4], in the assay on MCF-10A [5] and with BT-474 [6] was 0 each time. Besides, the drug sensitivity score in the assay with MDA-MB-453 [7], in the assay with HCC1599 [8], in the assay on CAL-120 [9] and with HDQ-P1 [10] was 0 throughout.
As to `N#CC[C@H](C1CCCC1)n1cc(-c2ncnc3[nH]ccc23)cn1` [Ruxolitinib], the drug sensitivity score in the assay on HCC1143 [1], with MFM-223 [2], in the assay on CAL-51 [3], with DU-4475 [4], in the assay with MCF-10A [5] and in the assay on BT-474 [6] was 0 each time. Besides, the drug sensitivity score in the assay with MDA-MB-453 [7] was determined as 0; in the assay with HCC1599 [8], 0; with CAL-120 [9], 0; in the assay on HDQ-P1 [10] it was 4.94.
For the compound `C=CC[C@@H]1/C=C(\C)C[C@H](C)C[C@H](OC)[C@H]2O[C@@](O)(C(=O)C(=O)N3CCCC[C@H]3C(=O)O[C@H](/C(C)=C/[C@@H]3CC[C@@H](O)[C@H](OC)C3)[C@H](C)[C@@H](O)CC1=O)[C@H](C)C[C@@H]2OC` [Tacrolimus], the drug sensitivity score worked out at 0 in the assay on HCC1143 [1]; 0 in the assay with MFM-223 [2]; 0 in the assay on CAL-51 [3]; 0 with DU-4475 [4]; 0.439 with MCF-10A [5]; 0 in the assay on BT-474 [6]. Also, the drug sensitivity score in the assay with MDA-MB-453 [7], in the assay on HCC1599 [8], in the assay with CAL-120 [9] and in the assay with HDQ-P1 [10] was 0 throughout.
In the case of `C[C@]1(c2nc3c(C(N)=O)cccc3[nH]2)CCCN1` [Veliparib] (1000 nM), the normalised response stood at 64.8% in the assay on HCC1143 [11]; 98.1% with MFM-223 [12]; 100% with CAL-51 [13]; 120% in the assay with HCC1937; 139% in the assay on MDA-MB-468; 99% with DU-4475 [14]. The normalised response with MCF-10A [15] was determined as 106%; in the assay on BT-549, 129%; in the assay with BT-474 [16], 103%; with MDA-MB-436, 91.3%; in the assay on MDA-MB-453 [17], 106%; with MDA-MB-231, 116%. Also, the normalised response in the assay with Hs578T stood at 91.6%; in the assay on HCC1599 [18], 105%; in the assay on CAL-85-1, 90%; in the assay with CAL-120 [19] it was 102%; with HDQ-P1 [20], 99%; in the assay with CAL-148, 105%.
Take `CC[C@]1(O)C[C@@H]2CN(CCc3c([nH]c4ccccc34)[C@@](C(=O)OC)(c3cc4c(cc3OC)N(C)[C@H]3[C@@](O)(C(=O)OC)[C@H](OC(C)=O)[C@]5(CC)C=CCN6CC[C@]43[C@@H]65)C2)C1` [Vinblastine] (100 nM): the normalised response with HCC1143 [11] was 56.7%; in the assay on MFM-223 [12], 54.7%; in the assay with CAL-51 [13] it was 32.1%; in the assay with HCC1937, -65.7%; with MDA-MB-468, 19.1%; in the assay with DU-4475 [14] it was 93.8%. The normalised response in the assay with MCF-10A [15] was 46%; in the assay on BT-549 it was 66.2%; in the assay with BT-474 [16], 67.5%; in the assay on MDA-MB-436, 88.4%; in the assay with MDA-MB-453 [17], 103%; with MDA-MB-231, 28.5%. For the same compound, the normalised response in the assay on Hs578T is -12.8%; in the assay on HCC1599 [18], 78.4%; in the assay with CAL-85-1 it was 61.1%; with CAL-120 [19], 88.2%; in the assay with HDQ-P1 [20] it was 96.8%; with CAL-148 it was 75.2%.
As to `CC[C@]1(O)C[C@@H]2CN(CCc3c([nH]c4ccccc34)[C@@](C(=O)OC)(c3cc4c(cc3OC)N(C)[C@H]3[C@@](O)(C(=O)OC)[C@H](OC(C)=O)[C@]5(CC)C=CCN6CC[C@]43[C@@H]65)C2)C1` [Vinblastine] (1000 nM), the normalised response with HCC1143 [11] came out at 34.2%; in the assay with MFM-223 [12] it was 51.2%; in the assay on CAL-51 [13], 20.7%; in the assay on HCC1937, 92.1%; in the assay on MDA-MB-468, 70.2%; in the assay with DU-4475 [14], 95.5%. Also, the normalised response in the assay on MCF-10A [15] was 50.5%; in the assay on BT-549 it was 61.4%; in the assay with BT-474 [16], 75.3%; in the assay on MDA-MB-436, 83.1%; with MDA-MB-453 [17], 96.5%; with MDA-MB-231 it was 19.5%. For the same compound, the normalised response is -39.7% with Hs578T; 75.5% in the assay with HCC1599 [18]; 85.4% in the assay on CAL-85-1; 89.8% in the assay on CAL-120 [19]; 101% in the assay with HDQ-P1 [20]; 89.4% with CAL-148.
As for `CS(=O)(=O)c1ccc(C(=O)Nc2ccc(Cl)c(-c3ccccn3)c2)c(Cl)c1` [Vismodegib] (10000 nM), the normalised response in the assay with HCC1143 [11] was 76.7%; in the assay with MFM-223 [12], 98%; with CAL-51 [13], 102%; in the assay with HCC1937, 84.1%; in the assay on MDA-MB-468, 226%; in the assay on DU-4475 [14], 100%. Also, the normalised response amounted to 85.5% in the assay on MCF-10A [15]; 119% with BT-549; 102% with BT-474 [16]; 85.5% in the assay on MDA-MB-436; 80.9% in the assay with MDA-MB-453 [17]; 94.1% in the assay on MDA-MB-231. Also, the normalised response with Hs578T came out at 82.8%; with HCC1599 [18], 98.8%; with CAL-85-1 it was 138%; in the assay with CAL-120 [19], 100%; with HDQ-P1 [20], 113%; in the assay on CAL-148 it was 105%.
